Assay results taken from publication doi:10.1101/2024.03.08.584059, “AllTheBacteria: a community resource empowers biology and discovers novel peptide antibiotics” (bioRxiv, 2026).
Entries after “also recorded” stand apart in the source; their conditions may differ. Ends that are not written are not given here. Peptide text beside a SMILES is read from it.

How the values were obtained:
A. baumannii ATCC 19606 [1] = test: NPN uptake outer membrane permeabilization assay; type: cell-based, Acinetobacter baumannii
Experimental: (§1) We next tested whether ATB peptides act primarily by disrupting the bacterial membrane, we assessed their ability to depolarize the cytoplasmic membrane and permeabilize the outer membrane of A. baumannii ATCC 19606 at their MICs using DiSC3-5 and NPN uptake assays, respectively. […] Fluorescence data were analysed in terms of both maximal signal over time and time-resolved kinetic profiles.
N-phenyl-1-napthylamine (NPN) uptake assay was used to evaluate the ability of the peptides to permeabilize the bacterial outer membrane. Inocula of A. baumannii ATCC 19606 were grown to an OD at 600 nm of 0.4 mL^−1, centrifuged (9,391 ģ at 4 °C for 10 min), washed and resuspended in 5 mmol L^−1 HEPES buffer (pH 7.4) containing 5 mmol L^−1 glucose. The bacterial solution was added to a white 96-well plate ([…] per well) together with […] of NPN at 0.5 mmol L^−1. Consequently, peptides diluted in water were added to each well, and the fluorescence was measured at lex = 350 nm and lem = 420 nm over time for 45 min. The relative fluorescence was calculated using the untreated control (buffer + bacteria + fluorescent dye) and polymyxin B (positive control) as baselines and the following equation was applied to reflect % of difference between the baselines and the sample: Percentagedifference=100*flurescencesample-flurescenceuntreatedcontrol/flurescenceuntreatedcontrol

[2] = test system: human embryonic kidney (HEK293T) cells; details: 24 h
Experimental: The cells were cultured in high-glucose Dulbecco’s modified Eagle’s medium supplemented with 1% penicillin and streptomycin (antibiotics) and 10% fetal bovine serum and grown at 37 °C in a humidified atmosphere containing 5% CO2.
One day prior to the experiment, 100 μL aliquots of human embryonic kidney (HEK293T) cells, at a concentration of 50,000 cells per mL, were seeded into each well of 96-well plates (5,000 cells per well). Following cell attachment, the HEK293T cells were treated with increasing concentrations of peptides (ranging from 8 to 128 μmol L^−1) and incubated for 24 h. After the exposure period, cytotoxicity was assessed using the 3-(4,5-dimethylthiazol-2-yl)-2,5-diphenyltetrazolium bromide (MTT) assay. Specifically, the MTT reagent was prepared at a concentration of 0.5 mg mL^−1 in phenol red-free medium and used to replace the peptide-containing supernatants (100 μL per well). The plates were then incubated for 4 h at 37 °C in a humidified atmosphere with 5% CO2, facilitating the formation of insoluble formazan crystals. These crystals were subsequently dissolved in 0.04 mol L^−1 hydrochloric acid prepared in anhydrous isopropanol. Absorbance was measured at 570 nm using a spectrophotometer to quantify cell viability. All experiments were conducted in triplicate (three biological replicates).
To evaluate the safety profile of the ATB peptides, we measured their cytotoxicity against human embryonic kidney (HEK293T) cells using a 3-(4,5-dimethylthiazol-2-yl)-2,5-diphenyltetrazolium bromide (MTT) viability assay and determined half-maximal cytotoxic concentrations (CC50). […]
index as the ratio CC50 (HEK293T) / MIC against A. baumannii ATCC 19606.

A. baumannii ATCC 19606 [3] = test: DiSC3-5 cytoplasmic membrane depolarization assay; type: cell-based, Acinetobacter baumannii; details: peptides at their MICs; HEPES buffer pH 7.2, 20 mmol L^−1 glucose, 0.1 mol L^−1 KCl; 60 min; responses remained below Triton X-100; in words
Experimental: as §1
The cytoplasmic membrane depolarization assay was performed using the membrane potential-sensitive dye 3,3’-dipropylthiadicarbocyanine iodide (DiSC3-5). A. baumannii ATCC 19606 in the mid-logarithmic phase were washed and resuspended at 0.05 OD mL^−1 (optical value at 600 nm) in HEPES buffer (pH 7.2) containing 20 mmol L^−1 glucose and 0.1 mol L^−1 KCl. […] Membrane depolarization was then followed by reading changes in the fluorescence (lex = 622 nm, lem = 670 nm) over time for 60 min. The relative fluorescence was calculated using the untreated control (buffer + bacteria + fluorescent dye) and polymyxin B (positive control) as baselines and the following equation was applied to reflect % of difference between the baselines and the sample: Percentagedifference=100*flurescencesample-flurescenceuntreatedcontrol/flurescenceuntreatedcontrol

A. baumannii ATCC 19606 [4] = test: microbe, parasite or virus in culture; details: Fig. 4 heat map; broth microdilution, LB, 10[5] bacterial cells, 0–64 μmol L^−1, 37 °C, one day, OD600; mode of replicates (triplicate)
Experimental: Figure 4. […] Briefly, 10[5] bacterial cells were incubated with serially diluted peptides (0–64 μmol L^−1) at 37 °C. Bacterial growth was assessed by measuring the optical density at 600 nm in a microplate reader one day post-treatment.

[5] = peptides at their MICs, 5 mmol L^−1 HEPES pH 7.4, 5 mmol L^−1 glucose, 45 min, rank order in words relative to bacterial baseline

“MKKLKIKKLKIKKLKIKKLKIKKLKSGLRSQ-OH [ATB2]” was tested, and the “outer membrane permeabilization (NPN fluorescence response)” value (“outer membrane permeabilization” for short) (A. baumannii ATCC 19606 [1]; [5]) was “only minor NPN increases”.
In the case of “MLKLLKKLQMHLLKKLQKEKLLLNLQKKTLKRKRFRHA-OH [ATB61]”, the “outer membrane permeabilization” value (A. baumannii ATCC 19606 [1]; [5]) is reported as “largest NPN responses” and the “half-maximal cytotoxic concentration (CC50)” value [2] is reported as 20 to 100 µM.
For “MRIKLHLRLAFLRFRKKKSLSRLKPISKIRSK-OH [ATB76]”, the “outer membrane permeabilization” value (A. baumannii ATCC 19606 [1]; [5]) was “strong outer-membrane permeabilization; also recorded: largest NPN responses” and the “half-maximal cytotoxic concentration (CC50)” value [2] was 9 to 12 µM.
For “MKLKKLIKFFAFAKGISLLSRRPVRKRTGGLLKKYLAWKYLRRR-OH [ATB6]”, the “half-maximal cytotoxic concentration (CC50)” value [2] was 20 to 100 µM.
With “MLGRKGLRSVWNGRLNVRKRRQNVRLRKNVRRKNVPKPSVWLI-OH [ATB39]” the “cytoplasmic membrane depolarization signal (DiSC3-5 fluorescence)” value (A. baumannii ATCC 19606 [3]) was “larger depolarization signals” and the “half-maximal cytotoxic concentration (CC50)” value [2] was 20 to 100 µM.
For “MIMATKLIKKNKFAKELFSRKYKPRVIKPKKGKGSFKRKKR-OH [ATB99]”, the “outer membrane permeabilization” value (A. baumannii ATCC 19606 [1]; [5]) was “largest NPN responses”.
With “MTKLKMYLKKVRKNANNSTKQWKYGLPVRNAKLWNNFQPKK-OH [ATB51]” the “half-maximal cytotoxic concentration (CC50)” value [2] was 20 to 100 µM.
In the case of “MTKHAIAAKSLLKKWIISRPLNMKKKSSPFQKIRKMFKRFFK-OH [ATB25]”, the “half-maximal cytotoxic concentration (CC50)” value [2] is reported as 5 to 6 µM.
For “MNKIILRVKKMLKNIKLKNNGIRKYNVKMEVKLVYFK-OH [ATB63]”, the “cytoplasmic membrane depolarization signal (DiSC3-5 fluorescence)” value (A. baumannii ATCC 19606 [3]) was “larger depolarization signals” and the “outer membrane permeabilization” value (A. baumannii ATCC 19606 [1]; [5]) was “largest NPN responses”.
For “MIKVSKLVVAKKLNLRKKLKKYLKKPKLGKILLL-OH [ATB12]”, the “half-maximal cytotoxic concentration (CC50)” value [2] was 20 to 100 µM.
“MSLKKIAKLLANKKVRKIAWMLISHPKFIKMLKNSIKRR-OH [ATB55]” was tested, and the “half-maximal cytotoxic concentration (CC50)” value [2] was 5 to 6 µM.
For “MKILKKNMHNKILPMVSHKKWMMLIKRLKTLGRIKK-OH [ATB56]”, the “half-maximal cytotoxic concentration (CC50)” value [2] was 20 to 100 µM.
With “MKKLIRNIIYSKLKFLWRWHRPLIIQRRNL-OH [ATB65]” the “cytoplasmic membrane depolarization signal (DiSC3-5 fluorescence)” value (A. baumannii ATCC 19606 [3]) was “larger depolarization signals”, the “outer membrane permeabilization” value (A. baumannii ATCC 19606 [1]; [5]) was “strong outer-membrane permeabilization; also recorded: largest NPN responses” and the “half-maximal cytotoxic concentration (CC50)” value [2] was 5 to 6 µM.
With “MFKTNLSRVSVKRLLIWVVWWLRLKKLKKKAKKFRKK-OH [ATB60]” the “cytoplasmic membrane depolarization signal (DiSC3-5 fluorescence)” value (A. baumannii ATCC 19606 [3]) was “larger depolarization signals”, the “outer membrane permeabilization” value (A. baumannii ATCC 19606 [1]; [5]) was “strong outer-membrane permeabilization; also recorded: largest NPN responses” and the “half-maximal cytotoxic concentration (CC50)” value [2] was 9 to 12 µM.
For “MRSLKRQLLKHKAVKLSIKKWQFLRKLKLVPKRH-OH [ATB18]”, the “half-maximal cytotoxic concentration (CC50)” value [2] was 9 to 12 µM.
With “MLKLLSIKLKSKKKILRMTLTKLNKWLKTKKKWLRNLKTM-OH [ATB5]” the “outer membrane permeabilization” value (A. baumannii ATCC 19606 [1]; [5]) was “only minor NPN increases”, the “half-maximal cytotoxic concentration (CC50)” value [2] was 9 to 12 µM and the “Minimal Inhibitory Concentration, A. baumannii ATCC 19606 (-)” value (A. baumannii ATCC 19606 [4]) was 1 µmol/L.
For “MLKGLKKFKWLKKLKRRLMELNELKKFKKLMELRS-OH [ATB13]”, the “half-maximal cytotoxic concentration (CC50)” value [2] was 9 to 12 µM.
For “MSLRKKLFVKTMLRVKIKKQSKQRLQKTKRLLQKLKRPWM-OH [ATB3]”, the “half-maximal cytotoxic concentration (CC50)” value [2] was 20 to 100 µM.
`CC[C@H](C)CCCCC(=O)N[C@@H](CCN)C(=O)N[C@H](C(=O)N[C@@H](CCN)C(=O)N[C@H]1CCNC(=O)[C@H]([C@@H](C)O)NC(=O)[C@H](CCN)NC(=O)[C@H](CCN)NC(=O)[C@H](CC(C)C)NC(=O)[C@@H](Cc2ccccc2)NC(=O)[C@H](CCN)NC1=O)[C@@H](C)O` [Polymyxin B, reference compound] (HELM PEPTIDE1{[CC[C@H](C)CCCCC(=O)[*:2]].[Dab].T.[Dab].[Dab].[Dab].[dF].L.[Dab].[Dab].T}$PEPTIDE1,PEPTIDE1,5:R3-11:R2$$$V2.0; N-terminus assumed; bridges inferred) was tested, and the “outer membrane permeabilization” value (A. baumannii ATCC 19606 [1]; pH 7.4) was “remained at or near baseline”.
